In PubChem BioAssay AID2060508 (Molecular Pharmacology Branch, DTP, NCI, 2025):

Tested on: 454973-116-R2-J3-PDC spheroids, viability, % test/control
Test: Anticancer human tumor 454973-116-R2-J3-PDC patient-derived pancreatic carcinoma cell line growth inhibition [GQUAD]
Conditions: spheroids with HUVEC and MSC; for IC50: curve of first compound; for viability, T/C: stronger effect = lower value
How it was run: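 Multi-cell-type spheroids of tumor cells with HUVEC and mesenchymal stem cells, treated with drug combinations. Concentrations descend in half-log steps from near clinical Cmax, or from 10 microM where Cmax is unknown; viability read-out.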

[1] = second compound 0.0316 µM, first compound 0.0316 µM
[2] = second compound 0.0316 µM, first compound 0.1 µM
[3] = second compound 0.0316 µM, first compound 0.316 µM
[4] = second compound 0.0316 µM, first compound 1 µM
[5] = second compound 0.0316 µM, first compound 3.16 µM
[6] = second compound 0.0316 µM, first compound 10 µM
[7] = second compound 0.1 µM, first compound 0.0316 µM
[8] = second compound 0.1 µM, first compound 0.1 µM
[9] = second compound 0.1 µM, first compound 0.316 µM
[10] = second compound 0.1 µM, first compound 1 µM
[11] = second compound 0.1 µM, first compound 3.16 µM
[12] = second compound 0.1 µM, first compound 10 µM
[13] = second compound 0.316 µM, first compound 0.0316 µM
[14] = second compound 0.316 µM, first compound 0.1 µM
[15] = second compound 0.316 µM, first compound 0.316 µM
[16] = second compound 0.316 µM, first compound 1 µM
[17] = second compound 0.316 µM, first compound 3.16 µM
[18] = second compound 0.316 µM, first compound 10 µM
[19] = second compound 1 µM, first compound 0.0316 µM
[20] = second compound 1 µM, first compound 0.1 µM
[21] = second compound 1 µM, first compound 0.316 µM
[22] = second compound 1 µM, first compound 1 µM
[23] = second compound 1 µM, first compound 3.16 µM
[24] = second compound 1 µM, first compound 10 µM
[25] = second compound 3.16 µM, first compound 0.0316 µM
[26] = second compound 3.16 µM, first compound 0.1 µM
[27] = second compound 3.16 µM, first compound 0.316 µM
[28] = second compound 3.16 µM, first compound 1 µM
[29] = second compound 3.16 µM, first compound 3.16 µM
[30] = second compound 3.16 µM, first compound 10 µM
[31] = second compound 10 µM, first compound 0.0316 µM
[32] = second compound 10 µM, first compound 0.1 µM
[33] = second compound 10 µM, first compound 0.316 µM
[34] = second compound 10 µM, first compound 1 µM
[35] = second compound 10 µM, first compound 3.16 µM
[36] = second compound 10 µM, first compound 10 µM
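Note: spheroids exposed to compounds for seven days.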
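Throughout, for viability, T/C: 100% = DMSO vehicle control viability.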

For `COc1cccc2c1C(=O)c1c(O)c3c(c(O)c1C2=O)CC(O)(C(=O)CO)CC3OC1CC(N)C(O)C(C)O1` (centres undefined) + Cc1cnc(CNC(=O)c2c(=O)c3ccc(N4CCCN(C)CC4)nc3n3c2sc2ccccc23)cn1, the IC50 (second compound 0.0316 µM) was 166 nM, the IC50 (second compound 0.1 µM) was 184 nM and the IC50 (second compound 0.316 µM) was 418 nM. For the same molecule, the IC50 (second compound 1 µM) was 746 nM, the IC50 (second compound 3.16 µM) was 763 nM and the IC50 (second compound 10 µM) was less than 31.6 nM. It also gave a viability, T/C [1] of 92.9%, a viability, T/C [2] of 52.9% and a viability, T/C [3] of 37.9%. It also gave a viability, T/C [4] of 28.8%, a viability, T/C [5] of 12.9% and a viability, T/C [6] of 0.39%. It also gave a viability, T/C [7] of 74.5%, a viability, T/C [8] of 45.4% and a viability, T/C [9] of 43.4%. For the same molecule, the viability, T/C [10] was 41%, the viability, T/C [11] was 13.4% and the viability, T/C [12] was 0.51%. For the same molecule, the viability, T/C [13] was 66.4%, the viability, T/C [14] was 52.3% and the viability, T/C [15] was 49.3%. For the same molecule, the viability, T/C [16] was 44%, the viability, T/C [17] was 12% and the viability, T/C [18] was 0.51%. It also gave a viability, T/C [19] of 62.4%, a viability, T/C [20] of 54.9% and a viability, T/C [21] of 62.8%. It also gave a viability, T/C [22] of 46.2%, a viability, T/C [23] of 12.3% and a viability, T/C [24] of 0.26%. It also gave a viability, T/C [25] of 68%, a viability, T/C [26] of 69.2% and a viability, T/C [27] of 63.3%. It also gave a viability, T/C [28] of 46%, a viability, T/C [29] of 11% and a viability, T/C [30] of 0.67%. For the same molecule, the viability, T/C [31] was 15.2%, the viability, T/C [32] was 20% and the viability, T/C [33] was 43.8%. The viability, T/C [34] was 27.7%, the viability, T/C [35] was 0.35% and the viability, T/C [36] was 0.21%.
Work on `Nc1ccn(C2OC(CO)C(O)C2(F)F)c(=O)n1` (centres undefined) + Cc1cnc(CNC(=O)c2c(=O)c3ccc(N4CCCN(C)CC4)nc3n3c2sc2ccccc23)cn1 yielded an IC50 (second compound 0.0316 µM) of less than 31.6 nM, an IC50 (second compound 0.1 µM) of less than 31.6 nM and an IC50 (second compound 0.316 µM) of less than 31.6 nM. It also gave an IC50 (second compound 1 µM) of less than 31.6 nM, an IC50 (second compound 3.16 µM) of less than 31.6 nM and an IC50 (second compound 10 µM) of less than 31.6 nM. For the same molecule, the viability, T/C [1] was 18.9%, the viability, T/C [2] was 15.8% and the viability, T/C [3] was 17.5%. For the same molecule, the viability, T/C [4] was 16.6%, the viability, T/C [5] was 14.2% and the viability, T/C [6] was 14.4%. The viability, T/C [7] was 22.7%, the viability, T/C [8] was 16.1% and the viability, T/C [9] was 15.6%. For the same molecule, the viability, T/C [10] was 21.5%, the viability, T/C [11] was 17.8% and the viability, T/C [12] was 13.8%. The viability, T/C [13] was 30.5%, the viability, T/C [14] was 19.5% and the viability, T/C [15] was 18.4%. The viability, T/C [16] was 16.1%, the viability, T/C [17] was 20.2% and the viability, T/C [18] was 23.2%. It also gave a viability, T/C [19] of 43.7%, a viability, T/C [20] of 24.6% and a viability, T/C [21] of 24%. The viability, T/C [22] was 24.2%, the viability, T/C [23] was 22.9% and the viability, T/C [24] was 21.8%. For the same molecule, the viability, T/C [25] was 45.5%, the viability, T/C [26] was 29.6% and the viability, T/C [27] was 30.5%. It also gave a viability, T/C [28] of 24.8%, a viability, T/C [29] of 32.8% and a viability, T/C [30] of 28.5%. The viability, T/C [31] was 0.17%, the viability, T/C [32] was 9.59% and the viability, T/C [33] was 26.2%. The viability, T/C [34] was 7.48%, the viability, T/C [35] was 0.89% and the viability, T/C [36] was 0.22%.
